According to patent US7674807B2, “Heterocycle-substituted n-phenyl-phthalamide derivatives, related compounds and their use as insecticides” (Bayer CropScience AG, priority 2004, dated 2010):

Columns and labels:
Type in all cases: in vivo
[1] = system: larva of Spodoptera litura; assay: Test against larva of Spodoptera litura (leaf dip, sweet potato leaves); details: 20 ppm concentration of the active component; third instar larvae; counted after 7 days; 25° C.
Procedure, shortened: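 Sweet potato leaves were dipped in emulsified compound diluted with water, air-dried, and given to 10 third-instar larvae per dish at 25° C, with fresh leaves added on days 2 and 4. Mortality was counted after 7 days and averaged over 2 dishes.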

[2] = system: larva of Cnaphalocrocis medinalis Guenee; assay: Test against larva of Cnaphalocrocis medinalis Guenee (sprayed paddy rice foliage); details: 20 ppm concentration of the active component; second instar larvae; counted after 7 days; 25° C.
Procedure, shortened: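 Potted rice (Tamanishiki) sprayed with aqueous dilutions of compound at the prescribed concentration; air-dried leaf pieces placed in dishes with five 2nd-instar larvae at 25° C, fresh treated foliage added at days 2 and 4. Mortality counted at day 7, averaged over 2 dishes.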

[3] = system: Myzus persicae resistant to organophosphorous agents and carbamates; assay: Test against Myzus persicae resistant to organophosphorous agents and carbamates (spray on eggplant seedlings); details: 100 ppm concentration of the effective component; 7 days after spraying; green house of 28° C.
Protocol: About 30 bred Myzus persicae resistant to organophosphorous agents and carbamates were inoculated per 1 seedling of eggplant planted in a vinyl pot of 6 cm diameter. One day after the inoculation, a sufficient amount of a diluted aqueous solution of a prescribed concentration of an active compound prepared as mentioned above, was sprayed by using a spray gun. After spraying it was placed in a green house of 28° C. and the rate of death was calculated 7 days after the spraying. Test was repeated twice.

Measured: controlling effect, rate of death

CC[S+]([O-])CC(C)NC(=O)c1c(Cl)cccc1C(=O)Nc1ccc(Cn2nc(C(F)(F)F)nc2C(F)(F)F)cc1C (stereo not drawn) [compound 147]
100%: all assays above

Cc1cc(Cn2nc(C(F)(F)F)nc2C(F)(F)F)ccc1NC(=O)c1cccc(I)c1C(=O)NC(C)(C)CS(C)(=O)=O [compound 213]
100%: all assays above

CSCC(C)NC(=O)c1c(I)cccc1C(=O)Nc1ccc(Cn2nc(C(F)(F)C(F)(F)F)nc2C(F)(F)F)cc1C (stereo not drawn) [compound 226]
100%: all assays above

CSCC(C)NC(=O)c1c(Cl)cccc1C(=O)Nc1ccc(Cn2nc(C(F)(F)F)nc2C(F)(F)F)cc1C (stereo not drawn) [compound 140]
100%: all assays above

Cc1cc(Cn2nc(C(F)(F)F)nc2C(F)(F)F)ccc1NC(=O)c1cccc(Br)c1C(=O)NC(C)C[S+](C)[O-] (stereo not drawn) [compound 180]
100%: all assays above

CSCC(C)NC(=O)c1c(Cl)cccc1C(=O)Nc1ccc(Cn2nc(C(F)(F)F)nc2C(F)(F)F)cc1C (stereo not drawn) [compound 141]
100%: all assays above

Cc1cc(Cn2nc(C(F)(F)F)nc2C(F)(F)F)ccc1NC(=O)c1cccc(Cl)c1C(=O)NC(C)CS(C)(=O)=O (stereo not drawn) [compound 144]
100%: all assays above

CSCC(C)(C)NC(=O)c1c(I)cccc1C(=O)Nc1ccc(Cn2nc(C(F)(F)F)nc2C(F)(F)F)cc1C [compound 211]
100%: all assays above

Cc1cc(Cn2nc(C(F)(F)F)nc2C(F)(F)F)ccc1NC(=O)c1cccc(Br)c1C(=O)NC(C)(C)CS(C)(=O)=O [compound 176]
100%: all assays above

CCS(=O)(=O)CC(C)NC(=O)c1c(Cl)cccc1C(=O)Nc1ccc(Cn2nc(C(F)(F)F)nc2C(F)(F)F)cc1C (stereo not drawn) [compound 148]
100%: all assays above

CCS(=O)(=O)CC(C)NC(=O)c1c(I)cccc1C(=O)Nc1ccc(Cn2nc(C(F)(F)F)nc2C(F)(F)F)cc1C (stereo not drawn) [compound 222]
100%: all assays above

CCSCC(C)NC(=O)c1c(I)cccc1C(=O)Nc1ccc(Cn2nc(C(F)(F)F)nc2C(F)(F)F)cc1C (stereo not drawn) [compound 220]
100%: all assays above

Cc1cc(Cn2nc(C(F)(F)F)nc2C(F)(F)F)ccc1NC(=O)c1cccc(I)c1C(=O)NC(C)CS(C)(=O)=O (stereo not drawn) [compound 218]
100%: all assays above

CSCC(C)NC(=O)c1c(I)cccc1C(=O)Nc1ccc(Cn2nc(C(F)(F)F)nc2C(F)(F)F)cc1C (stereo not drawn) [compound 215]
100%: all assays above

Cc1cc(C(C)n2nc(C(F)(F)F)nc2C(F)(F)F)ccc1NC(=O)c1cccc(Cl)c1C(=O)N[C@@H](C)CS(C)(=O)=O (stereo partly drawn) [compound 570]
100%: all assays above

CSCC(C)NC(=O)c1c(I)cccc1C(=O)Nc1ccc(Cn2nc(C(F)(F)F)nc2C(F)(F)F)cc1C (stereo not drawn) [compound 214]
100%: all assays above
